Results from US7772241B2, “Variolin derivatives and their use as antitumor agents” (Pharma Mar S.A., priority 2001, dated 2010).

Legend:
[1] = tested on: LNCaP; assay: Inhibition of cells growth by colorimetric (SRB) assay, LNCaP; conditions: for GI50 / CC50: Homo sapiens, LNCaP, 48 h; for GI50: read-out: GI50 LN-caP, SRB assay, 48 hours exposure; for CC50: read-out: LC50 LN-caP, SRB assay, 48 hours exposure; for TGI LN-caP: SRB assay, 48 hours exposure
Text: (§1) The finality of these assays is to interrupt the growth of a “in vitro” tumor cell culture by means a continued exhibition of the cells to the sample to be testing.
(§2) This form of the assay employs 96 well cell culture microplates of 9 mm diameter (Faircloth, 1988; Mosmann, 1983). Most of the cell lines are obtained from American Type Culture Collection (ATCC) derived from different human cancer types.
(§3) Cells are maintained in RPMI 1640 10% FBS, supplemented with 0.1 g/l penicillin and 0.1 g/l streptomycin sulphate and then incubated at 37° C., 5% CO2 and 98% humidity. For the experiments, cells were harvested from subconfluent cultures using trypsin and resuspended in fresh medium before plating.
(§4) Cells are seeded in 96 well microtiter plates, at 5×10^3 cells per well in aliquots of 195 μl medium, and they are allowed to attach to the plate surface by growing in drug free medium for 18 hours. Afterward, samples are added in aliquots of 5 μl in a ranging from 10 to 10^−8 μg/ml, dissolved in DMSO/EtOH/PBS (0.5:0.5:99). After 48 hours exposure, the antitumor effect are measured by the SRB methodology: cells are fixed by adding 50 μl of cold 50% (wt/vol) trichloroacetic acid (TCA) and incubating for 60 minutes at 4° C. Plates are washed with deionized water and dried. One hundred μl of SRB solution (0.4% wt/vol in 1% acetic acid) is added to each microtiter well and incubated for 10 minutes at room temperature. Unbound SRB is removed by washing with 1% acetic acid. Plates are air dried and bound stain is solubilized with Tris buffer. Optical densities are read on a automated spectrophotometric plate reader at a single wavelength of 490 nm.
(§5) The values for mean +/−SD of data from triplicate wells are calculated. Some parameters for cellular responses can be calculated: GI=growth inhibition, TGI=total growth inhibition (cytostatic effect) and LC=cell killing (cytotoxic effect).

[2] = tested on: DU-145; assay: Inhibition of cells growth by colorimetric (SRB) assay, DU-145; conditions: for GI50 / CC50: Homo sapiens, DU-145, 48 h; for GI50: read-out: GI50 DU-145, SRB assay, 48 hours exposure; for CC50: read-out: LC50 DU-145, SRB assay, 48 hours exposure; for TGI DU-145: SRB assay, 48 hours exposure
Text: as §1, §2, §3, §4, §5

[3] = tested on: LoVo; assay: Inhibition of cells growth by colorimetric (SRB) assay, LoVo; conditions: for GI50 / CC50: Homo sapiens, LoVo, 48 h; for GI50: read-out: GI50 LOVO, SRB assay, 48 hours exposure; for CC50: read-out: LC50 LOVO, SRB assay, 48 hours exposure; for TGI LOVO: SRB assay, 48 hours exposure
Text: as §1, §2, §3, §4, §5

[4] = tested on: IGROV-1; assay: Inhibition of cells growth by colorimetric (SRB) assay, IGROV-1; conditions: for GI50 / CC50: Homo sapiens, IGROV-1, 48 h; for GI50: read-out: GI50 IGROV, SRB assay, 48 hours exposure; for CC50: read-out: LC50 IGROV, SRB assay, 48 hours exposure; for TGI IGROV: SRB assay, 48 hours exposure
Text: as §1, §2, §3, §4, §5

[5] = tested on: A-549; assay: Inhibition of cells growth by colorimetric (SRB) assay, A-549; conditions: for GI50 / CC50: Homo sapiens, A549, 48 h; for GI50: read-out: GI50 A-549, SRB assay, 48 hours exposure; for CC50: read-out: LC50 A-549, SRB assay, 48 hours exposure; for TGI A-549: SRB assay, 48 hours exposure
Text: as §1, §2, §3, §4, §5

[6] = tested on: PANC-1; assay: Inhibition of cells growth by colorimetric (SRB) assay, PANC-1; conditions: for GI50 / CC50: Homo sapiens, PANC-1, 48 h; for GI50: read-out: GI50 PANC-1, SRB assay, 48 hours exposure; for CC50: read-out: LC50 PANC-1, SRB assay, 48 hours exposure; for TGI PANC-1: SRB assay, 48 hours exposure
Text: as §1, §2, §3, §4, §5

[7] = tested on: HT-29; assay: Inhibition of cells growth by colorimetric (SRB) assay, HT-29; conditions: for GI50 / CC50: Homo sapiens, HT-29, 48 h; for GI50: read-out: GI50 HT-29, SRB assay, 48 hours exposure; for CC50: read-out: LC50 HT-29, SRB assay, 48 hours exposure; for TGI HT-29: SRB assay, 48 hours exposure
Text: as §1, §2, §3, §4, §5

[8] = tested on: K-562; assay: Inhibition of cells growth by colorimetric (SRB) assay, K-562; conditions: for GI50 / CC50: Homo sapiens, K562, 48 h; for GI50: read-out: GI50 K-562, SRB assay, 48 hours exposure; for CC50: read-out: LC50 K-562, SRB assay, 48 hours exposure; for TGI K-562: SRB assay, 48 hours exposure
Text: as §1, §2, §3, §4, §5

[9] = tested on: SK-OV-3; assay: Inhibition of cells growth by colorimetric (SRB) assay, SK-OV-3; conditions: for GI50 / CC50: Homo sapiens, SK-OV-3, 48 h; for GI50: read-out: GI50 SKOV-3, SRB assay, 48 hours exposure; for CC50: read-out: LC50 SKOV-3, SRB assay, 48 hours exposure; for TGI SKOV-3: SRB assay, 48 hours exposure
Text: as §1, §2, §3, §4, §5

[10] = tested on: IGROV-ET; assay: Inhibition of cells growth by colorimetric (SRB) assay, IGROV-ET; conditions: for GI50 / CC50: Homo sapiens, 48 h; for GI50: read-out: GI50 IGROV-ET, SRB assay, 48 hours exposure; for CC50: read-out: LC50 IGROV-ET, SRB assay, 48 hours exposure; for TGI IGROV-ET: SRB assay, 48 hours exposure
Text: as §1, §2, §3, §4, §5

[11] = tested on: SK-MEL-28; assay: Inhibition of cells growth by colorimetric (SRB) assay, SK-MEL-28; conditions: for GI50 / CC50: Homo sapiens, SK-MEL-28, 48 h; for GI50: read-out: GI50 MEL-28, SRB assay, 48 hours exposure; for CC50: read-out: LC50 MEL-28, SRB assay, 48 hours exposure; for TGI MEL-28: SRB assay, 48 hours exposure
Text: as §1, §2, §3, §4, §5

[12] = tested on: LoVo-Dox; assay: Inhibition of cells growth by colorimetric (SRB) assay, LoVo-Dox; conditions: for GI50 / CC50: Homo sapiens, 48 h; for GI50: read-out: GI50 LOVO-DOX, SRB assay, 48 hours exposure; for CC50: read-out: LC50 LOVO-DOX, SRB assay, 48 hours exposure; for TGI LOVO-DOX: SRB assay, 48 hours exposure
Text: as §1, §2, §3, §4, §5

SMILES	GI50 [1] [µM]	CC50 [1] [µM]	TGI LN-caP [1]	GI50 [2] [µM]	CC50 [2] [µM]	TGI DU-145 [2]	GI50 [3] [µM]	CC50 [3] [µM]	TGI LOVO [3]	GI50 [4] [µM]	CC50 [4] [µM]	TGI IGROV [4]	GI50 [5] [µM]	CC50 [5] [µM]	TGI A-549 [5]	GI50 [6] [µM]	CC50 [6] [µM]	TGI PANC-1 [6]	GI50 [7] [µM]	CC50 [7] [µM]	also measured
Nc1nccc(-c2c3c(Cl)ccnc3n3c(N)nccc23)n1 [Compound 113]	1.57	15.6	2.39E−06	1.51	32.1	6.26E−06	1.26	32.1	7.83E−06	2.94	24.1	8.53E−06	4.3	21.4	9.59E−06	1.11	32.1	2.76E−05	4.72	32.1	TGI HT-29 [7]: 3.21E−05; GI50 [8]: 6.16 µM; CC50 [8]: 32.1 µM; TGI K-562 [8]: 2.00E−05; GI50 [9]: 1.37 µM; CC50 [9]: 32.1 µM; TGI SKOV-3 [9]: 5.39E−06; GI50 [10]: 1.3 µM; CC50 [10]: 32.1 µM; TGI IGROV-ET [10]: 6.00E−06; GI50 [11]: 2.12 µM; CC50 [11]: 17.6 µM; TGI MEL-28 [11]: 6.29E−06; GI50 [12]: 2.35 µM; CC50 [12]: 32.1 µM; TGI LOVO-DOX [12]: 1.18E−05
Nc1nccc2c(-c3ccnc(O)n3)c3c(O)ccnc3n12 [Compound 106]	6.42	24.5	1.64E−05	16.2	24.5	2.45E−05	24.5	24.5	2.45E−05	6.69	24.1	1.27E−05	18.2	24.5	2.45E−05	6.44	24.5	1.71E−05	24.5	24.5	TGI HT-29 [7]: 2.45E−05; GI50 [8]: 10.6 µM; CC50 [8]: 24.5 µM; TGI K-562 [8]: 2.45E−05; GI50 [9]: 5.73 µM; CC50 [9]: 24.5 µM; TGI SKOV-3 [9]: 1.51E−05; GI50 [10]: 4.97 µM; CC50 [10]: 24.4 µM; TGI IGROV-ET [10]: 1.10E−05; GI50 [11]: 8.87 µM; CC50 [11]: 24.5 µM; TGI MEL-28 [11]: 2.45E−05; GI50 [12]: 8.18 µM; CC50 [12]: 24.5 µM; TGI LOVO-DOX [12]: 2.45E−05
Cl.Nc1nccc2c(-c3ccncn3)c3cccnc3n12 [Compound 71]	0.0502	1.82	2.15E−07	0.75	33.5	2.31E−06	0.318	33.5	1.84E−06	0.797	4.15	1.65E−06	1.1	11.2	2.70E−06	1.07	33.5	3.78E−06	1.1	33.5	TGI HT-29 [7]: 3.35E−06; GI50 [8]: 1.7 µM; CC50 [8]: 33.5 µM; TGI K-562 [8]: 1.30E−05; GI50 [9]: 1.06 µM; CC50 [9]: 33.5 µM; TGI SKOV-3 [9]: 3.00E−06; GI50 [10]: 1.04 µM; CC50 [10]: 31.9 µM; TGI IGROV-ET [10]: 2.75E−06; GI50 [11]: 0.556 µM; CC50 [11]: 2.5 µM; TGI MEL-28 [11]: 1.18E−06; GI50 [12]: 0.465 µM; CC50 [12]: 33.5 µM; TGI LOVO-DOX [12]: 1.79E−06
